Values of other authors in patent publication US20070092567A1 (GALEPHAR M/F, priority 2001, published 2007).
“Also recorded” adds a separate entry of the source. Each block holds one molecule with its values, some of them ahead of it.

Assays:
cytochrome P450 3A4 = cytochrome P450 3A4 (Homo sapiens, UniProt P08684)
[1] = molecular target: cytochrome P450 2C9 isoenzyme (Homo sapiens, UniProt P11712)
[2] = not given; remark: listed apart in the source

cytochrome P450 2C9 isoenzyme, sequence (P11712 whole entry): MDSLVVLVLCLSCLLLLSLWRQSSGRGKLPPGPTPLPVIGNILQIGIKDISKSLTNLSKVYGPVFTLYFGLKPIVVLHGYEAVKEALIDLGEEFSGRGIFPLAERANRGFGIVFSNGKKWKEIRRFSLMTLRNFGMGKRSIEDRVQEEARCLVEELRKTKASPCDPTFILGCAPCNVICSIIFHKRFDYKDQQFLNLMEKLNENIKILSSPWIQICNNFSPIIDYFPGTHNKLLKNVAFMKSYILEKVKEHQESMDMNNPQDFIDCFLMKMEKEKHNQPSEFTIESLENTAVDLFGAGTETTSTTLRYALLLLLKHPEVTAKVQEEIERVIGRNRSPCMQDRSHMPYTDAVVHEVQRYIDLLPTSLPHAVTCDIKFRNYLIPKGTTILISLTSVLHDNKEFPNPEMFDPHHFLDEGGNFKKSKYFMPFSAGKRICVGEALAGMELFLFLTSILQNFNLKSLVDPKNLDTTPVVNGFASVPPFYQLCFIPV
cytochrome P450 3A4, sequence (P08684 whole entry): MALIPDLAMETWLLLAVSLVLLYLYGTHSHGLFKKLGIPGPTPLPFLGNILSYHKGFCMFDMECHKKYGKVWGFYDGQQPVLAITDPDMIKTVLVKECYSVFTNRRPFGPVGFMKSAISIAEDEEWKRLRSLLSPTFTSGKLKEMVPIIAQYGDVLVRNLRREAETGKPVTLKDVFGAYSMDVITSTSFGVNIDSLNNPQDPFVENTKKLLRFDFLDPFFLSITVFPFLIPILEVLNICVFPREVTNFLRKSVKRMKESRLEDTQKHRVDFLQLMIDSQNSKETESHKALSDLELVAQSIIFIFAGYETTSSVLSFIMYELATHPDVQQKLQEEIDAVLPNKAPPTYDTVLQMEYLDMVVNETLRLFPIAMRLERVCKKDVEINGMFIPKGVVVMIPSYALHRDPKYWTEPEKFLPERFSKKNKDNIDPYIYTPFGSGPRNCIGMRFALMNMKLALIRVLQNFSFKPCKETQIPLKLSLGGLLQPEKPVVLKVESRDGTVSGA

metabolisation by cytochrome P450 3A4 (cytochrome P450 3A4): not metabolised by cytochrome P450 3A4
metabolisation by cytochrome P450 2C9 isoenzyme [1]: only weakly metabolised
SMILES: CC(C)OC(=O)C(C)(C)Oc1ccc(C(=O)c2ccc(Cl)cc2)cc1 [Fenofibrate, p-(4-chlorobenzoyl)-phenoxy isobutyrate isopropyl ester]

mean plasma half-life (healthy, fasting young adults): 19.6 to 26.6 h
eliminated in the urine as fenofibric acid ester glucuronide (in vivo): 60-88%
Peak plasma levels (single oral dose of 300 mg fenofibrate): 6 to 9.5 mg/L
SMILES: CC(C)(Oc1ccc(C(=O)c2ccc(Cl)cc2)cc1)C(=O)O [fenofibric acid]

average oral absorption ([2]; based on urinary recovery of radiolabeled drug): 34%
decrease of systemic bioavailability following a bedtime dose compared to morning administration ([2]; human, in vivo): 60%
SMILES: CC[C@H](C)C(=O)O[C@H]1C[C@H](O)C=C2C=C[C@H](C)[C@H](CC[C@@H](O)C[C@@H](O)CC(=O)O)[C@H]21 [pravastatin]
metabolisation through the cytochrome P450 system (cytochrome P450 system): not metabolised through the cytochrome P450 system; also recorded: does not involve the cytochrome P450 system
